The text below walks through data of ChEMBL document CHEMBL1201862, “PubChem BioAssay data set” (2004).

Some test systems named below: SK-MEL-5; ACHN; RPMI-8226; K562; T47D; IGROV-1; MDA-MB-231; UACC-62; CAKI-1; A549; HCC 2998; OVCAR-3; U-251; NCI-H23; SN12C; Malme-3M; MOLT-4; NCI-H226; HOP-92; CCRF-CEM.
Common to all, as to experiment: NCI tumour cell line growth inhibition, 48 h

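Exposure lasted 48 hours, with cells grown in 96-well plates and compounds tested at five concentrations. GI50 = concentration required for 50% inhibition of growth.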 Activity calls are given as the source filed them. Cut-off read from the data, not from the text of the source: active = GI50 up to about 1.1 µM and inactive = higher.

On to `CCOC(=O)CC[C@H](N)C(=O)N[C@@H](Cc1ccc(N(CCCl)CCCl)cc1)C(=O)OCC`, for which the GI50 in the assay on SK-MEL-5 was 1.5 µM (inactive); with ACHN it was < 0.0348 µM (active); with RPMI-8226, 2.54 µM (inactive); in the assay with K562, 0.895 µM (active); in the assay on T47D it was 0.718 µM (active); in the assay on IGROV-1 it was 1.56 µM (inactive). Besides, the GI50 in the assay with MDA-MB-231 was 1.94 µM (inactive); in the assay with UACC-62 it was 0.256 µM (active); in the assay on CAKI-1, 0.358 µM (active); with A549, 2.73 µM (inactive); with HCC 2998, 1.25 µM (inactive); in the assay with OVCAR-3 it was 0.652 µM (active). Moreover, the GI50 was 1.94 µM (inactive) in the assay with U-251; 0.278 µM (active) in the assay with NCI-H23; 2.15 µM (inactive) with SN12C; 0.291 µM (active) in the assay with Malme-3M; 0.0345 µM (active) in the assay on MOLT-4; 11.1 µM (inactive) in the assay with NCI-H226. Also, the results for the GI50 in the assay with HOP-92 and in the assay with CCRF-CEM were 0.475 µM (active) and < 0.0308 µM (active), respectively.

With `COc1cc(C(c2ccc3c(c2)OCO3)N2C(=O)CCC2C(=O)O)cc(OC)c1OC` (centres undefined), the GI50 in the assay on SK-MEL-5, in the assay on ACHN, with RPMI-8226, with K562, in the assay on T47D and with IGROV-1 was > 100 µM (inactive) throughout. Further, the GI50 in the assay on MDA-MB-231, in the assay with UACC-62, with CAKI-1, in the assay with A549, in the assay on HCC 2998 and with OVCAR-3 was > 100 µM (inactive) each time. Besides, the GI50 in the assay with U-251, in the assay on NCI-H23, in the assay on SN12C, in the assay on Malme-3M, in the assay on MOLT-4 and in the assay on NCI-H226 was > 100 µM (inactive) throughout. In addition, the GI50 in the assay on HOP-92 and with CCRF-CEM was > 100 µM (inactive) each time.

`COc1ccc(C2CC(c3c(C)nn(-c4ccccc4)c3-c3ccc(C)cc3O)=NN2c2ccccc2)cc1` (centres undefined): the GI50 in the assay on SK-MEL-5 is 18.5 µM (inactive); with ACHN it was 13.9 µM (inactive); in the assay on RPMI-8226 it was 4.81 µM (inactive); in the assay with K562, 7.13 µM (inactive); in the assay with T47D it was 9.57 µM (inactive); with IGROV-1, 49.3 µM (inactive). Further, the GI50 with MDA-MB-231 was > 46.5 µM (inactive); in the assay with UACC-62, 23 µM (inactive); with CAKI-1 it was 38.9 µM (inactive); with A549, 4.35 µM (inactive); in the assay on HCC 2998, 12 µM (inactive); with OVCAR-3 it was > 50.5 µM (inactive). Moreover, the GI50 in the assay with U-251 is 33.3 µM (inactive); in the assay on NCI-H23, 3.79 µM (inactive); with SN12C it was > 100 µM (inactive); in the assay on Malme-3M, 19.9 µM (inactive); in the assay with MOLT-4, 4.65 µM (inactive); with NCI-H226, > 24 µM (inactive). The GI50 in the assay on HOP-92 was > 100 µM (inactive); with CCRF-CEM, 6.05 µM (inactive).

For `CN(/N=C/c1ccc(Cl)c(Cl)c1)C1=NCCN1`, the GI50 with SK-MEL-5 is 16.4 µM (inactive); in the assay with ACHN, 31.9 µM (inactive); in the assay with RPMI-8226 it was 24.8 µM (inactive); with K562, 12.1 µM (inactive); in the assay on T47D, 23 µM (inactive); with IGROV-1, 27.1 µM (inactive). The GI50 is 23 µM (inactive) in the assay with MDA-MB-231; 18.6 µM (inactive) in the assay with UACC-62; 17.3 µM (inactive) with CAKI-1; 33.4 µM (inactive) in the assay with A549; 30.3 µM (inactive) in the assay with HCC 2998; 28.6 µM (inactive) in the assay on OVCAR-3. Also, the GI50 is 23.2 µM (inactive) in the assay on U-251; 56 µM (inactive) in the assay on NCI-H23; 29.9 µM (inactive) with SN12C; 18.8 µM (inactive) in the assay on Malme-3M; 13.7 µM (inactive) in the assay with MOLT-4; 27.1 µM (inactive) in the assay with NCI-H226. In addition, the GI50 was 21.7 µM (inactive) in the assay with HOP-92 and 16.7 µM (inactive) in the assay on CCRF-CEM.

Regarding `Nc1ccc2c(c1)N(C(=O)c1cc3cc(NC(=O)c4cc5ccccc5o4)ccc3[nH]1)CC2CCl` (centres undefined), the GI50 is 0.0397 µM (active) with SK-MEL-5; 0.0199 µM (active) in the assay with ACHN; 0.0284 µM (active) in the assay on RPMI-8226; 0.0662 µM (active) in the assay with K562; 0.114 µM (active) in the assay with T47D; 0.108 µM (active) in the assay on IGROV-1. Further, the GI50 in the assay on MDA-MB-231 is 0.239 µM (active); in the assay on UACC-62, 0.112 µM (active); with CAKI-1, 0.0338 µM (active); in the assay on A549, 0.0299 µM (active); with HCC 2998 it was 0.0724 µM (active); in the assay with OVCAR-3, 0.0743 µM (active). Further, the GI50 in the assay on U-251 was 0.106 µM (active); in the assay with NCI-H23, 0.0211 µM (active); in the assay on SN12C it was 0.215 µM (active); in the assay with Malme-3M, 0.122 µM (active); in the assay on MOLT-4, 0.045 µM (active); in the assay on NCI-H226 it was 0.13 µM (active). Besides, the results for the GI50 in the assay on HOP-92 and in the assay with CCRF-CEM were 0.168 µM (active) and 0.0405 µM (active), respectively.

With `C=C(C)[C@H]1C2=CC(C)=C(O2)[C@@H](O[C@@H]2c3oc(cc3C)[C@H](C(=C)C)[C@H]3C=C(CC[C@H]2C(=C)C)C(=O)O3)[C@H](C(=C)C)CCC2=C[C@H]1OC2=O`, the GI50 in the assay with SK-MEL-5, in the assay on ACHN, with RPMI-8226, with K562, in the assay on T47D and in the assay on IGROV-1 was > 100 µM (inactive) in each case. For the same molecule, the GI50 with MDA-MB-231, in the assay with UACC-62, with CAKI-1, with A549, with HCC 2998 and in the assay on OVCAR-3 was > 100 µM (inactive) in each case. For the same molecule, the GI50 with U-251, in the assay on NCI-H23, with SN12C, in the assay with Malme-3M, in the assay with MOLT-4 and in the assay with NCI-H226 was > 100 µM (inactive) throughout. The GI50 in the assay with HOP-92 and in the assay on CCRF-CEM was > 100 µM (inactive) each time.

`C=C(c1ccccc1)[C@@]1(O)CC[C@@H]1N(CC#N)Cc1ccccc1`: the GI50 with SK-MEL-5 is 15.9 µM (inactive); in the assay on ACHN, 20.8 µM (inactive); in the assay with RPMI-8226 it was 20 µM (inactive); in the assay on K562 it was 42.1 µM (inactive); in the assay on T47D it was 16.3 µM (inactive); with IGROV-1, 36.1 µM (inactive). The GI50 with MDA-MB-231 was 14 µM (inactive); in the assay on UACC-62, 17.9 µM (inactive); in the assay with CAKI-1, 18.9 µM (inactive); in the assay on A549, 32.9 µM (inactive); in the assay with HCC 2998 it was 21.2 µM (inactive); in the assay on OVCAR-3 it was 12.3 µM (inactive). Moreover, the GI50 was 53.3 µM (inactive) with U-251; 23.1 µM (inactive) with NCI-H23; 20.1 µM (inactive) in the assay with SN12C; 3.23 µM (inactive) in the assay with Malme-3M; 26.3 µM (inactive) in the assay with MOLT-4; 35.2 µM (inactive) in the assay with NCI-H226. In addition, the figures for the GI50 in the assay on HOP-92 and in the assay on CCRF-CEM were 18.7 µM (inactive) and 32 µM (inactive), respectively.

`CC(NNC(=O)c1ccncc1)c1cccc(C(F)(F)F)c1` (centres undefined): the GI50 in the assay on SK-MEL-5, with ACHN, in the assay on RPMI-8226, in the assay on K562, in the assay on T47D and in the assay with IGROV-1 was > 100 µM (inactive) each time. Besides, the GI50 with MDA-MB-231 was > 100 µM (inactive); with UACC-62, > 100 µM (inactive); in the assay with CAKI-1 it was > 100 µM (inactive); in the assay on A549, > 100 µM (inactive); in the assay on HCC 2998, > 100 µM (inactive); in the assay with OVCAR-3 it was 0.265 µM (active). The GI50 in the assay on U-251, with NCI-H23, with SN12C, in the assay on Malme-3M, in the assay with MOLT-4 and in the assay with NCI-H226 was > 100 µM (inactive) in each case. Besides, the GI50 with HOP-92 and in the assay on CCRF-CEM was > 100 µM (inactive) each time.

With `CC1CSC(=S)N1C(=O)N1C(=S)SCC1C` (centres undefined), the GI50 in the assay on SK-MEL-5 was 17 µM (inactive); in the assay with ACHN, 18.5 µM (inactive); in the assay on RPMI-8226 it was 18.7 µM (inactive); in the assay on K562, 20.1 µM (inactive); with T47D it was 28.6 µM (inactive); in the assay with IGROV-1, 18.5 µM (inactive). Moreover, the GI50 in the assay with MDA-MB-231 is 22.2 µM (inactive); with UACC-62 it was 14.7 µM (inactive); in the assay with CAKI-1, 20.4 µM (inactive); in the assay with A549, 35.6 µM (inactive); in the assay on HCC 2998 it was 36.6 µM (inactive); in the assay with OVCAR-3, 27.4 µM (inactive). For the same molecule, the GI50 was 18.2 µM (inactive) with U-251; 20.3 µM (inactive) in the assay with NCI-H23; 20.5 µM (inactive) in the assay with SN12C; 17.1 µM (inactive) in the assay with Malme-3M; 23.6 µM (inactive) with MOLT-4; 26.5 µM (inactive) in the assay on NCI-H226. The GI50 in the assay on HOP-92 was 27.7 µM (inactive); with CCRF-CEM, 8.73 µM (inactive).

`CC(C)=C[C@H]1C[C@H](C)[C@H]2CC[C@H](C)c3c2c1c(C)c1ncoc31`: the GI50 in the assay with SK-MEL-5 is 13.9 µM (inactive); in the assay on ACHN, 18.1 µM (inactive); in the assay with RPMI-8226, 12.2 µM (inactive); with K562, 21.4 µM (inactive); in the assay with T47D, 17.8 µM (inactive); in the assay on IGROV-1, 13.9 µM (inactive). In addition, the GI50 in the assay with MDA-MB-231 is 20.4 µM (inactive); with UACC-62, 18.3 µM (inactive); with CAKI-1, 18.7 µM (inactive); in the assay with A549 it was 14.9 µM (inactive); in the assay on HCC 2998 it was 20 µM (inactive); in the assay with OVCAR-3 it was 15.1 µM (inactive). For the same molecule, the GI50 in the assay with U-251 was 16.8 µM (inactive); in the assay with SN12C it was 19.5 µM (inactive); in the assay with Malme-3M, 13.5 µM (inactive); in the assay on MOLT-4 it was 14.1 µM (inactive); in the assay on NCI-H226, 16.8 µM (inactive); with HOP-92 it was 16.6 µM (inactive). For the same molecule, the GI50 with CCRF-CEM is 17.7 µM (inactive).
